# Tests used:
# HiBiT-ERα = target: T1, HiBiT-ERα (Homo sapiens, UniProt P03372); test: Nano-BiT binary luminescence complementation, transfected HEK-293 cells, total receptor; type: cell-based
# T1 sequence (P03372 1-595): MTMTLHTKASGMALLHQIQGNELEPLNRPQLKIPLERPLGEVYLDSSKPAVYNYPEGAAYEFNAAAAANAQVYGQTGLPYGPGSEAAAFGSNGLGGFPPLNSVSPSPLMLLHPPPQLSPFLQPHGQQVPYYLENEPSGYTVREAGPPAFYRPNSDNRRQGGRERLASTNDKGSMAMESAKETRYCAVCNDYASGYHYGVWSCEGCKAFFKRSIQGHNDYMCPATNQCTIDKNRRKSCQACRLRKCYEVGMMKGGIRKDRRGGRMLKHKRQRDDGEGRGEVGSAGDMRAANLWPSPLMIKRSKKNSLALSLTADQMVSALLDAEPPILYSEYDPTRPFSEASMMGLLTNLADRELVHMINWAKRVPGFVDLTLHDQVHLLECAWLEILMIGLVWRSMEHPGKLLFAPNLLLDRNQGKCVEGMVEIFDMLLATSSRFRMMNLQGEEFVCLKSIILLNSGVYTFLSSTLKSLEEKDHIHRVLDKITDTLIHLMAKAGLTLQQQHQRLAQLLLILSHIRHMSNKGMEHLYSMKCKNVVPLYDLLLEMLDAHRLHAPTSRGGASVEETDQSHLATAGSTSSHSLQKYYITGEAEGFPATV
# Description: FIG. 26. […] HEK-293 cells (ERα^-, GPER^-) were transiently transfected with 50 ng HiBiT-GPER or HiBiT-ER plus pcDNA3.1(+) zeo carrier plasmid. […] Results shown represent the mean ± S.E. of three independent experiments.
# (§1) FIG. 28. […] Total receptor was then measured by binary luminescence complementation in detergent-permeabilized cells. […] Total receptor was then quantified by binary luminescence complementation. Representative luminescence data and mean values and SDs derived from three independent experiments are shown.
# (§2) Transient transfections and binary Nano-Bit ™ luminescence assays. Total HiBiT-tagged GPER or ER estrogen receptors were detected in detergent-permeabilized cells by binary luminescence complementation with recombinant LgBit and substrate using the Nano-Glo HiBiT Extracellular Detection system kit (Promega Corporation, Madison, Wl). In brief, HEK293 cells (0.75 × 10^6) were seeded in 35 mm tissue culture dishes and 24 hours later were transiently transfected with 50 ng of HiBiT-GPER or HiBiT-ERa and 950 ng of pcDNA3.1(+) zeo carrier plasmid using Lipofectamine 2000 (Invitrogen, Carlsbad, CA). The next day transfected cells were harvested by trypsinization and seeded at a density of 10^4 cells/well in 96-well poly-L-lysine-coated Greiner white-bottomed microplates. On the following day, cell culture media was aspirated and replaced with 100 µL of serum-free PRF-DF12 containing E2-PROTAC, partial-PROTAC, or vehicle at various concentrations and for indicated time intervals at 37° C. […] Following treatment, total HiBiT-tagged receptor was measured in cells which were permeabilized in 0.05% Triton X-100 using HiBiT complementation reagent consisting of LgBiT protein and Nano-Gio® HiBiT substrate. Luminescence was measured using the Infinite 200 PRO multimode microplate reader from Tecan (Raleigh, NC) and reported as Relative Luminescent Units (RLU). All samples were measured in triplicate and expressed as the mean value plus or minus standard deviation.
# HA-b1AR = target: T2, HA-b1AR (Homo sapiens, UniProt P08588); test: Immunofluorescence with HA antibody, stably transfected HEK293 cells; type: cell-based; details: 100 µM, 1 hour
# T2 construct: expressed in transfected cells
# HCC 1806 and SKBR3 cells = test: Survivability of breast cancer cells (Example 1); details: HCC 1806 and SKBR3, 24 hours of treatment
# ERβ = ERβ (Homo sapiens, UniProt Q92731); test: Immunostaining of endogenous receptors in MCF-7 cells; details: MCF-7, 1 hour
# HiBiT-GPER = HiBiT-GPER (Homo sapiens, UniProt Q99527); test: Nano-BiT binary luminescence complementation, transfected HEK-293 cells, total receptor; type: cell-based
# Description: FIG. 26. […] HEK-293 cells (ERα^-, GPER^-) were transiently transfected with 50 ng HiBiT-GPER or HiBiT-ER plus pcDNA3.1(+) zeo carrier plasmid. […] (C) Histogram depicting total HiBiT-GPER and HiBiT-ER following a 1-hour treatment at […] drug or control. […] Results shown represent the mean ± S.E. of three independent experiments.
# as §1, §2
# GPER = GPER (Homo sapiens, UniProt Q99527); test: Competitive binding assay in intact SKBR3 cells with E2-FITC as fluoro-tracer (flow cytometry); set-up: endogenous in cells; host or cells: SKBR3 human breast carcinoma cells (ATCC)
# [1] = increasing doses, 1 hour, partial PROTAC 100 µM
# Sequence of HiBiT-GPER (Q99527 whole entry): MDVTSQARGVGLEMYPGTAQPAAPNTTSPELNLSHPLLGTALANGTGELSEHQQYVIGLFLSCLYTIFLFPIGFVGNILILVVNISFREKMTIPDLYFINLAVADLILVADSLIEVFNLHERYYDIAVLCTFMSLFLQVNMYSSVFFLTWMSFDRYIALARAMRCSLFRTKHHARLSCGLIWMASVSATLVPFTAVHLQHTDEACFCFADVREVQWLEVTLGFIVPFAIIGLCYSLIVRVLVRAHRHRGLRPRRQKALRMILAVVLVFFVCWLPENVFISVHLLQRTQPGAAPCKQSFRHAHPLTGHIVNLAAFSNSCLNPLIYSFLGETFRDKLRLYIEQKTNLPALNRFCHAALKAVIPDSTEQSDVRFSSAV
# Sequence of GPER (Q99527 whole entry): as above
# T2 sequence (P08588 whole entry): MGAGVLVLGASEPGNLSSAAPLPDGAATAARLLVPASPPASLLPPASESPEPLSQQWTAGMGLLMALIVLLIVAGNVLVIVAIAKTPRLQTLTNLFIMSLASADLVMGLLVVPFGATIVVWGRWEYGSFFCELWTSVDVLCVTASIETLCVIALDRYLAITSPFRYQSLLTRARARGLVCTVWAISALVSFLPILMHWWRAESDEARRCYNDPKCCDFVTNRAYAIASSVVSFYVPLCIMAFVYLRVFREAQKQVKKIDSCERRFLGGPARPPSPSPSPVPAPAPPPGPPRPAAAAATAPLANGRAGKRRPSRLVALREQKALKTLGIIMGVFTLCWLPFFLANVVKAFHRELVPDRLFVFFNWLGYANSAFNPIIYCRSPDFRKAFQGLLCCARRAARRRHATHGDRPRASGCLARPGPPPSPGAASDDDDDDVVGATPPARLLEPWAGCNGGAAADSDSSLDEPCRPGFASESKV
# Sequence of ERβ (Q92731 whole entry): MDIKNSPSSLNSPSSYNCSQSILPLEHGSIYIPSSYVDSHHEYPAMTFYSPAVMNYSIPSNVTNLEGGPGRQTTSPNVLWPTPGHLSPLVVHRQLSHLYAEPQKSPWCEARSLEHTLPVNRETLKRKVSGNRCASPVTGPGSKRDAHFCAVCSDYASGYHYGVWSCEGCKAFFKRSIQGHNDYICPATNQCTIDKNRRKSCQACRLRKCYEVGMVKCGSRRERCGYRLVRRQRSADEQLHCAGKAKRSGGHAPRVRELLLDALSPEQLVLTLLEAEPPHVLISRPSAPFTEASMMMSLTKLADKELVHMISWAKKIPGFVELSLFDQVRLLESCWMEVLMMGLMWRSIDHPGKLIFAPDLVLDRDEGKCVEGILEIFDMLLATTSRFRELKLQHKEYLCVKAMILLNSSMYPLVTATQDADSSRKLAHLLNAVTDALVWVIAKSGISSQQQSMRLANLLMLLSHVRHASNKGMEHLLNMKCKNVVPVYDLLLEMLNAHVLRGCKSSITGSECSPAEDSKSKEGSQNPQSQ
structure (smiles),measurement,setting,value
Cc1ncsc1-c1ccc(CNC(=O)C2CC(O)CN2C(=O)C(NC(=O)COCCOCCOCCOCC(=O)OC2CCC3C4CCc5cc(O)ccc5C4CCC23C)C(C)(C)C)cc1 (stereo not shown) [UI-EP001],reduction in expression level of recombinant ER,"HiBiT-ERα; 100 µM, as early as 1 h",50%
same,change of HiBiT-ERα,HiBiT-ERα; [1],dose-dependent decrease
same,off-target degradation of HA-b1AR,HA-b1AR,without detectable off-target degradation
same,survivability compared to partial PROTAC,HCC 1806 and SKBR3 cells,lower survivability
same,nuclear ERβ expression,ERβ,Clear site-specific reduction
same,reduction in expression level of recombinant GPER,"HiBiT-GPER; 100 µM, as early as 1 h",50%
same,DC50,"HiBiT-GPER; 1 hour treatment, detergent-permeabilized cells, read-out: DC50 (concentration required for 50% protein degradation), GPER",100 µM
same,change of HiBiT-GPER,HiBiT-GPER; [1],dose-dependent decrease
same,"RBA%, GPER",GPER; IC50 of 17β-E2 divided by IC50 of test compound,330%
same,Kd,"GPER; intact SKBR3 cells, E2-FITC, read-out: binding dissociation constant (Kd), GPER",~0.03 µM

# — US20230312639A1, “GPER PROTEOLYTIC TARGETING CHIMERAS” (University of Iowa Research Foundation, priority 2020, published 2023)
